Consider 1 compound from article PMC8476002, “Bergamottin a CYP3A inhibitor found in grapefruit juice inhibits prostate cancer cell growth by downregulating androgen receptor signaling and promoting G0/G1 cell cycle block and apoptosis” (PLoS ONE, 2021).

The structures appear in SMILES notation.

Assay [1] has as its system MDAPCa2b cells. Put plainly: TUNEL apoptosis detection assay, MDAPCa2b. The settings on record: 10μM, 4 days. In kind it is cell-based, human. As for the experimental part:
To detect apoptosis in the cells after bergamottin treatment In Situ cell death detection kit from Sigma-Aldrich (St. Louis, MO) was used. This apoptosis detection kit fluorescently labels the single and double-stranded DNA breaks caused due to apoptosis using terminal deoxynucleotidyl transferase (TUNEL-reaction). The cells were plated in poly- D- lysine coated 35 mm Glass bottom dish (Cellvis catalog# D35C4-20-1.5-N), treated with bergamottin for the specified time, and dosage and then stained with the kit reagents. The kit recommended protocol was followed. After the staining, the confocal microscope was used to procure images of the cells. The TUNEL assay preferentially labels apoptosis in comparison to necrosis and positive apoptosis is recognized when cells incorporate fluorescent labelled nucleotide (Ex 450 to 500nm and Em 515 to 565-green).

For the next assay, the system named is LNCaP cells. As to the kind of experiment: MTT growth assay, LNCaP. The following applies: Homo sapiens. In kind it is cell-based. Here is the method:
Growth of the cells was measured using a MTT assay. Cells were plated (2000 cells/ 96 well or 13,000 cells/ 24 well) for 48 hours then treated with bergamottin for 4 days (96 hours) and then incubated with MTT (3-(4,5-Dimethylthiazol- 2-yl)-2,5-Diphenyltetrazolium bromide) (4 mg/ml) for 2 h. at 37°C. DMSO (vehicle control for bergamottin) levels were compensated in each bergamottin treatment group. Cells were centrifuged at 2000 g for 10 min and the supernatant was discarded. The cell pellet was dissolved in 100/500 μl of DMSO depending on the well size. A plate reader was used to read the absorption at 540 nm. Experiments were performed in octuplet/quadruplet and repeated at least three times.

The subject of assay [2] is AR nuclear localization in LNCaP cells. Put plainly: Confocal microscopy of AR nuclear localization, LNCaP. Type of assay: cell-based, human. The following applies: bergamottin 10μM, versus DMSO. As for the experimental part: (§1) Cells were seeded into 35 mm Glass bottom dish (Cellvis catalog# D35C4-20-1.5-N) in complete media; media was changed to CSSM prior to DHT treatment. The cells were fixed in 4% paraformaldehyde for 20 minutes and permeabilized using permeabilizing buffer (0.2% Tween 20 in PBS) for 5 minutes. Cells were blocked using 10% goat serum diluted in permeabilizing buffer with 1% BSA for 15 minutes. Primary antibodies were diluted at 1:100 in staining buffer (1% BSA in PBS) and incubated for 2 hours at room temperature. Cells were washed three times (5 minutes each) in PBS. Secondary antibodies, TRITC-conjugated Donkey Anti-rabbit (711-025-152) was from Jackson immuno research, West Grove, PA was diluted at 1:100 in staining buffer and incubated for 60 minutes at room temperature. Cells were washed three times (5 minutes) in PBS and stained with 1 μg/mL DAPI (4’, 6-diamidino-2-phenylindole) in PBS for 5 minutes at room temperature. The cells were stored in PBS at 4°C until imaging was completed.
(§2) Cells were imaged using confocal laser scanning microscopy on a Nikon A1R using a galvano scanner and a 60× Apo-TIRF oil immersion objective. NIS Elements software form Nikon was used for recording the data.

Assay [3] deals with several other cancer cell types. Details: method as in PMID 25130169, PMID 27222242, PMID 10552768, PMID 28726768, PMID 26911804. The settings on record: read-out: IC50 for growth of several other cancer cell types; cited from earlier work.
In assay [4] the test system is PARP cleavage in MDAPCa2b cells. Put plainly: Western blot of PARP cleavage, MDAPCa2b. Type of assay: cell-based, human. The following applies: 5 and 10 μM for 96 hrs. and 20 μM for 48 hrs. As for the experimental part: (§3) Cells were plated at 25–30% confluence when maintained in complete media. When the cells required DHT tretment and media replacement to charcoal stripped serum media (CSSM) they were plated at 35–40% confluence. Bergamottin is dissolved in DMSO (vehicle control) and the amount of DMSO at each treatment group was kept constant. After the completion of the treatment cells were washed in phosphate buffer (PBS) containing 2mMEDTA and 2mM EGTA and lysed in RIPA buffer (50 mM TRIS, 150 mM NaCl, 1% NP40, 0.5% sodium deoxycholate, 0.1% SDS, 2mM EDTA, 2mM EGTA) supplemented with protease and phosphatase inhibitors for total protein isolation. Protein estimation was performed using micro BCA assay and equal protein amponts were loaded on SDS-PAGE gels for western analysis. GAPDH was used as an internal control for total protein. Infrared fluorescent-labeled secondary antibodies were used for detection using Odyssey CLx. The bands were quantified using Odyssey software, which calculates pixel density and automatically takes an area adjacent to each band for background corrections.
(§4) Cells were plated in complete media without antibiotics on poly D-lysine-coated plates (80,000 cells per 6 well). […]

In assay [5] the test system is MDAPCa2b cells. Put plainly: Clonogenic assay, MDAPCa2b. Type of assay: cell-based, human. The following applies: 5μM and 10μM, 3 weeks. Here is the method: For clonogenic assay, cells were plated in 6 well plates (10,000 cells) for 48 h and then treated with indicated amounts of bergamottin and vehicle control (DMSO). After 3 weeks, the colonies were fixed, stained (0.75% crystal violet, 50% ethanol and 1.75% formaldehyde) and counted. The assay was repeated three times.

The next assay relates to PSA in LNCaP cells. Put plainly: Western blotting of PSA, LNCaP. In kind it is cell-based, human. The settings on record: 10μM, 96 hours. Here is the method: as §3
In assay [6] the test system is AR nuclear localization in MDAPCa2b cells. Put plainly: Confocal microscopy of AR nuclear localization, MDAPCa2b. Type of assay: cell-based, human. The following applies: bergamottin 10μM, versus DMSO. Here is the method:
as §1, §2

The subject of assay [7] is PARP cleavage in LNCaP cells. As to the kind of experiment: Western blot of PARP cleavage, LNCaP. The settings on record: 5 and 10 μM for 96 hrs. and 20 μM for 48 hrs. Type of assay: cell-based, human. Here is the method:
as §3, §4
Background: Immunoblotting shows a protein as a band on a membrane.

For assay [8], the system named is total AR in MDAPCa2b cells. Put plainly: Western blotting of total AR, MDAPCa2b. Type of assay: cell-based, human. The settings on record: bergamottin 10μM, CSSM. Here is the method:
as §3

A further assay has as its system PSA in MDAPCa2b cells. As to the kind of experiment: Western blotting of PSA, MDAPCa2b. The settings on record: 10μM, 96 hours. Type of assay: cell-based, human. Here is the method:
as §3

The inhibition is the share of the control response that was lost under treatment. A low value points to a response near the control.

In the case of `CC(C)=CCC/C(C)=C/COc1c2ccoc2cc2oc(=O)ccc12` [bergamottin], the “DNA breaks (TUNEL, apoptosis)” value in the assay with MDAPCa2b cells [1] is given as “increased DNA breaks”. Moreover, the inhibition at 10 µM in the assay on LNCaP cells (10μM) was determined as 60%. Besides, the IC50 with LNCaP cells (treatment 96 hours (methods) / 120 hours (Fig 1 legend), read-out: bergamottin concentration giving 50% growth reduction) is 2.4 µM; in assay [3] it was 30 to 100 µM. In addition, the “active AR migration to the nucleus with DHT induction (confocal)” value in assay [2] and in assay [6] was “significantly reduced” throughout. For the same compound, the PARP cleavage entry in assay [4] and in [7] was “showed apoptosis (cleaved PARP)” each time. In addition, the number of colonies result in the assay with MDAPCa2b cells [5] was “significantly reduced the number of colonies”. Moreover, the PSA levels entry in the assay on PSA in LNCaP cells and in the assay on PSA in MDAPCa2b cells was “significantly reduced PSA levels” each time. In addition, in [8], the “downregulation of total AR levels” value is reported as 50%.
